Measurements reported in paper PMC6364417, “Kinase inhibitor library screening identifies synergistic drug combinations effective in sensitive and resistant melanoma cells” (Journal of Experimental & Clinical Cancer Research : CR, 2019).

What was measured:
Test in all cases: Kinase inhibitor library screening, PrestoBlue cell viability, 1 or 10 μM, 72 h
[1] = tested on: 501Mel-XP cells (Vemurafenib-resistant); settings: 501Mel XP, 72 h
[2] = tested on: A375-GP cells (Dabrafenib-resistant); settings: A375 GP, 72 h
[3] = tested on: 501Mel-GP cells (Dabrafenib-resistant); settings: 501Mel GP, 72 h
[4] = tested on: IGR37 cells (parental); settings: IGR37 Parental, 72 h
[5] = tested on: A375-XP cells (Vemurafenib-resistant); settings: A375 XP, 72 h
[6] = tested on: A375 cells (parental); settings: A375 Parental, 72 h
[7] = tested on: 501Mel cells (parental); settings: 501Mel Parental, 72 h
In short: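 Parental cells and Vemurafenib-resistant (XP) or Dabrafenib-resistant (GP) derivatives were treated with library kinase inhibitors at 1 and 10 μM for 72 h. Viability measured by PrestoBlue and expressed as % of untreated cells, at least in duplicate.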

[8] = tested on: IGR37-GP cells (Dabrafenib-resistant); settings: IGR37 GP, 72 h
[9] = tested on: IGR37-XP cells (Vemurafenib-resistant); settings: IGR37 XP, 72 h

Structure (SMILES): CNC(=O)c1cc(Oc2ccc(NC(=O)Nc3cc(C(C)(C)C)nn3-c3ccc4ncccc4c3)c(F)c2)ccn1 [DCC-2036 (Rebastinib)]
- cell viability (kinase inhibitor library screening) ([1]; 1μΜ): 102.9%
- cell viability (kinase inhibitor library screening) ([1]; 10μΜ): 0.261%
- cell viability (kinase inhibitor library screening) ([2]; 1μΜ): 96.7%
- cell viability (kinase inhibitor library screening) ([2]; 10μΜ): 3.6%
- cell viability (kinase inhibitor library screening) ([3]; 1μΜ): 100.3%
- cell viability (kinase inhibitor library screening) ([3]; 10μΜ): 2.0%
- cell viability (kinase inhibitor library screening) ([4]; 1μΜ): 67.0%
- cell viability (kinase inhibitor library screening) ([4]; 10μΜ): 20.7%
- cell viability (kinase inhibitor library screening) ([5]; 1μΜ): 76.3%
- cell viability (kinase inhibitor library screening) ([5]; 10μΜ): 2.5%
- cell viability (kinase inhibitor library screening) ([6]; 10μΜ): 1.8%
- cell viability (kinase inhibitor library screening) ([6]; 1μΜ): 55.4%
- cell viability (kinase inhibitor library screening) ([7]; 1μΜ): 81.5%
- cell viability (kinase inhibitor library screening) ([7]; 10μΜ): 2.8%
- cell viability (kinase inhibitor library screening) ([8]; 10μΜ): 8.3%
- cell viability (kinase inhibitor library screening) ([9]; 1μΜ): 107.3%
- cell viability (kinase inhibitor library screening) ([9]; 10μΜ): 2.4%

Structure (SMILES): CC(C)(C)c1nc(-c2cccc(NS(=O)(=O)c3c(F)cccc3F)c2F)c(-c2ccnc(N)n2)s1 [Dabrafenib (GSK2118436)]
- Cell viability in kinase inhibitor library screening, 501Mel XP, 1μΜ ([1]; 1μΜ, in %): 79.2
- Cell viability in kinase inhibitor library screening, 501Mel XP, 10μΜ ([1]; 10μΜ, in %): 97.5
- Cell viability in kinase inhibitor library screening, A375 GP, 1μΜ ([2]; 1μΜ): 65.8
- Cell viability in kinase inhibitor library screening, A375 GP, 10μΜ ([2]; 10μΜ): 52.9
- Cell viability in kinase inhibitor library screening, 501Mel GP, 1μΜ ([3]; 1μΜ, in %): 96.2
- Cell viability in kinase inhibitor library screening, 501Mel GP, 10μΜ ([3]; 10μΜ, in %): 92.9
- Cell viability in kinase inhibitor library screening, IGR37 Parental, 1μΜ ([4]; 1μΜ, in %): 34.2
- Cell viability in kinase inhibitor library screening, IGR37 Parental, 10μΜ ([4]; 10μΜ, in %): 44.5
- Cell viability in kinase inhibitor library screening, A375 XP, 1μΜ ([5]; 1μΜ): 73.0
- Cell viability in kinase inhibitor library screening, A375 XP, 10μΜ ([5]; 10μΜ): 48.7
- Cell viability in kinase inhibitor library screening, A375 Parental, 10μΜ ([6]; 10μΜ): 26.9
- Cell viability in kinase inhibitor library screening, A375 Parental, 1μΜ ([6]; 1μΜ): 17.6
- Cell viability in kinase inhibitor library screening, 501Mel Parental, 1μΜ ([7]; 1μΜ, in %): 51.2
- Cell viability in kinase inhibitor library screening, 501Mel Parental, 10μΜ ([7]; 10μΜ, in %): 72.8
- Cell viability in kinase inhibitor library screening, IGR37 GP, 10μΜ ([8]; 10μΜ): 97.8%
- Cell viability in kinase inhibitor library screening, IGR37 GP, 1μΜ ([8]; 1μΜ, in %): 94.6
- Cell viability in kinase inhibitor library screening, IGR37 XP, 10μΜ ([9]; 10μΜ): 78.9%
- Cell viability in kinase inhibitor library screening, IGR37 XP, 1μΜ ([9]; 1μΜ, in %): 93.2

Structure (SMILES): COc1cc2ncnc(Nc3ccc(F)c(Cl)c3)c2cc1NC(=O)/C=C/CN1CCCCC1 [Dacomitinib (PF299804,PF-00299804)]
- cell viability, 501Mel XP, 10μΜ ([1]; 10μΜ, in %): -0.2
- cell viability, A375 GP, 1μΜ ([2]; 1μΜ, in %): 97.2
- cell viability, A375 GP, 10μΜ ([2]; 10μΜ, in %): 1.9
- cell viability, 501Mel GP, 1μΜ ([3]; 1μΜ, in %): 106.7
- cell viability, 501Mel GP, 10μΜ ([3]; 10μΜ, in %): -0.4
- cell viability, IGR37 Parental, 10μΜ ([4]; 10μΜ, in %): 1.1
- cell viability, A375 XP, 1μΜ ([5]; 1μΜ, in %): 96.8
- cell viability, A375 XP, 10μΜ ([5]; 10μΜ, in %): 1.1
- cell viability, A375 Parental, 1μΜ ([6]; 1μΜ, in %): 94.4
- cell viability, A375 Parental, 10μΜ ([6]; 10μΜ, in %): 3.4
- cell viability, 501Mel Parental, 10μΜ ([7]; 10μΜ, in %): 0.5
- cell viability, IGR37 GP, 10μΜ ([8]; 10μΜ): 2.6%
- cell viability, IGR37 XP, 10μΜ ([9]; 10μΜ): 1.3%
- cell viability, IGR37 XP, 1μΜ ([9]; 1μΜ, in %): 80.1

Structure (SMILES): CO[C@@H](C(=O)N1Cc2n[nH]c(NC(=O)c3ccc(N4CCN(C)CC4)cc3)c2C1)c1ccccc1 [Danusertib (PHA-739358)]
- cell viability (kinase inhibitor library screening) ([1]; 1μΜ): 84.5%
- cell viability (kinase inhibitor library screening) ([1]; 10μΜ): 58.4%
- cell viability (kinase inhibitor library screening) ([2]; 1μΜ): 48.5%
- cell viability (kinase inhibitor library screening) ([2]; 10μΜ): 27.8%
- cell viability (kinase inhibitor library screening) ([3]; 1μΜ): 94.8%
- cell viability (kinase inhibitor library screening) ([3]; 10μΜ): 72.3%
- cell viability (kinase inhibitor library screening) ([4]; 10μΜ): 59.2%
- cell viability (kinase inhibitor library screening) ([5]; 1μΜ): 53.8%
- cell viability (kinase inhibitor library screening) ([5]; 10μΜ): 35.5%
- cell viability (kinase inhibitor library screening) ([6]; 10μΜ): 28.0%
- cell viability (kinase inhibitor library screening) ([6]; 1μΜ): 51.2%
- cell viability (kinase inhibitor library screening) ([7]; 1μΜ): 94.3%
- cell viability (kinase inhibitor library screening) ([7]; 10μΜ): 80.7%
- cell viability (kinase inhibitor library screening) ([8]; 10μΜ): 66.0%
- cell viability (kinase inhibitor library screening) ([9]; 10μΜ): 21.3%
